Results on 4 molecules are retold here after patent US20130274212A1, “Sesterterpene Compounds and Use Thereof” (SNU R&DB FOUNDATION, priority 2010, published 2013).

Molecules are shown by their SMILES.

In one assay the target is Nurr1 (Mus musculus, UniProt Q06219). In words: GAL-mNurr1 luciferase reporter transfection assay in CV-1 cells. The format is cell-based. Particulars: GAL-mNurr1, luciferase corrected by β-galactosidase, 24 hours. How it is done:
(§1) Animal cell line CV-1 was used in transfection search. Cells were cultured in DMEM medium within a cell incubator containing 5% carbon dioxide at 37° C. The medium contained 10% fetal bovine serum (FBS), 100 U/ml penicillin, and 100 μg/ml streptomycin. On day 1 of the experiment, CV1 cells were seeded in a 96-well plate at 5,000 cells/well. On day 2, the seeded cells were transfected with plasmid expressing GAL-mNurr1, plasmid expressing luciferase gene, and plasmid expressing β-galactosidase by using a transfection reagent, Superfect (QIAGEN). After 16 hours, the transfected cells were treated with compounds of Chemical Formula I dissolved in dimethylsulfoxide (DMSO) by the concentrations. Cells treated with dimethylsulfoxide having the final concentration of 1% were used as a negative control group. After culturing for 24 hours, the cells were lysed by using a lysis buffer, and luciferin was added thereto to measure the luciferase activity by a luminometer. After addition of an ONPG reagent, β-galactosidase activity was measured by an ELISA reader. The measured luciferase value was corrected by the activity value of β-galactosidase. […] Accordingly, it was verified that the compounds of Chemical Formula I were compounds selective to Nurr1.

Assay [1] relates to C57BL/6 mice administered with MPTP. In words: MPTP-induced Parkinson's disease mice, Rotarod exercise capacity. In kind it is in vivo, mouse. To be noted: oral 5 mg/kg once per day for 5 days before MPTP 25 mg/kg; measured after 3 days. The source says: In the present example, in order to verify efficacy to prevent and treat Parkinson's Disease of the compound of Chemical Formula I according to the present invention in the Parkinson's Disease as one of neurodegenerative diseases, mice administered with 1-methyl-4-phenyl-1,2,3,6-tetrahydropyridine (MPTP) were used. The efficacy to prevent and treat the Parkinson's Disease was verified by administering the compound of Chemical Formula I (CMDD-X or Compound 7) to a Parkinson's Disease-induced disease model and then measuring exercise capacity of the mice. C57BL/6 mice (male, 12-week old) were used. The mice were adapted to a housing environment for 1 week while pellet type general diet was supplied, and then divided into 3 groups of 5 mice each to have similar body weights. Before MPTP administration, the compound CMDD-X was orally administered at a concentration of 5 mg/kg. After 3 hours, probenecid as MPTP efflux inhibitor was intraperitoneally administered to the mice at a concentration of 250 mg/kg, and, after 2 hours, 25 mg/kg of MPTP was intraperitoneally administered. Administration was conducted once per one day for a total of 5 days, and, after 3 days, exercise capacity of the mice was measured by using the Rotarod. […]
On the technique in general: In the rotarod test animals must keep their balance on a rotating rod.

The next assay concerns LXR. In words: GAL-hLXRa or GAL-hLXRB luciferase reporter antagonist assay in CV-1 cells. The format is cell-based, human. To be noted: LXR agonist T0901517 500 nM. The protocol:
as §1, with “expressing GAL-hLXRa or GAL-hLXRB,” for “expressing GAL-mNurr1,”, “expressing β-galactosidase,” for “expressing β-galactosidase”, “the concentrations (here, the final concentration of the LXR agonist, T0901517, was 500 nM).” for “the concentrations.”, “I are antagonist” for “I were”, “to LXR.” for “to Nurr1.”
(In a reporter assay the amount or activity of a reporter protein is the signal.)

For a further assay, the system named is db/db mice. In words: Renal failure as diabetes complication: blood urea nitrogen in db/db mice. In kind it is in vivo, mouse. Particulars: oral 10 mg/kg/day, 4 weeks. The protocol:
In order to verify the efficacy to treat renal failure as a diabetes complication, a db/db disease animal model was used. 8-week old db/db mice were orally administered with the compound of Chemical Formula I (CMDD-X or Compound 7) at a dose of 10 mg/kg/day for 4 weeks, and then the blood urea nitrogen as a marker to treat renal failure was measured.

Assay [2] has as its system Gyk, LXR, SREBP1c, SCD1, PPARa, UCP gene expression. In words: Gene expression analysis (micro-array, Q-RT PCR) in diabetic mice fed with compound. The format is in vivo, mouse. The protocol:
Gene expression analysis was conducted to establish the mechanism. The gene analysis was conducted by using micro-array and the Q-RT PCR method. […] Expressions of PPARa and UCP, which are genes for burning the newly generated fat to release heat, were increased (FIG. 13).

Assay [3] has as its system BKS.Cg-+Lepr^db/+Lepr^db (db/db) mice. In words: Anti-diabetic efficacy in db/db mice (blood sugar, insulin, adiponectin, glucose and insulin tolerance). The format is in vivo, mouse. How it is done: In the present example, in order to verify efficacy to prevent and treat diabetes of the compound of Chemical Formula I (CMDD-X or Compound 7) according to the present invention, BKS.Cg-+Lepr^db/+Lepr^db (db/db) mice as an insulin-independent diabetes animal model and general mice (C57BL/6J) fed with high-fat feedstuff were used. After the disease animal model was orally administered with CMDD-X, the diabetes-related index between the administered group and the control group was measured to verify the efficacy as an agent for preventing and treating diabetes. BKS.Cg-+Lepr^db/+Lepr^db (db/db) mice (male, 7-week old) as type 2 diabetes animal model were purchased and used. The experiment animals were adapted to a housing environment for 1 week while pellet type general diet (lab-chow) was supplied, and then divided into 2 groups of 18 mice each by randomized block design to have similar blood sugar and body weight. For general mice fed with high-fat feedstuff as another animal model, 6-week old C57BL/6J mice was purchased, and then were adapted to a lap environment for 2 weeks. After that, high-fat diet containing 35% fat diet (weight ratio, Research Diets. Co. Ltd.) was supplied for 14 weeks. The efficacy to prevent and treat diabetes by CMDD-X was observed through oral administration. A mouse fed with only 0.5% carboxylmethyl cellulose, as a medicine delivery, was used as a negative control group. The medicine was orally administered to the db/db mice for 4 weeks, a total of 28 days, and to the C57BL/6J mice, which was fed with the high-fat diet, for the last 6 weeks, at a dose of 10 mg/kg/day. The experiment animals after administration were fasted for 15 hours before autopsy, and then the blood taken from the orbital venous treated with heparin. […] The other organ tissues were rapidly cooled in the liquid nitrogen immediately after removal thereof, and kept at −70° C. and then analyzed. T-test was conducted with respect to the control group and the administered group, a significant difference of less than 5% (P<0.05) was determined as having have a statistical significance.
In order to measure the blood sugar reduction efficacy of the compound of Chemical Formula I (CMDD-X or Compound 7), the blood was collected through tail veins of the db/db mice before experiment ending, after feeding, and after stomach was empty for 15 hours, and the blood sugar was measured by using a glucose oxidase method. […]
The insulin and adiponectin concentrations of the plasma, obtained from the orbital venous of the db/db mice orally administered with CMDD-X (or Compound 7) for 4 weeks, were measured by using an Elisa Kit. […]

Chain of Nurr1 (Q06219 360-598 limits assumed): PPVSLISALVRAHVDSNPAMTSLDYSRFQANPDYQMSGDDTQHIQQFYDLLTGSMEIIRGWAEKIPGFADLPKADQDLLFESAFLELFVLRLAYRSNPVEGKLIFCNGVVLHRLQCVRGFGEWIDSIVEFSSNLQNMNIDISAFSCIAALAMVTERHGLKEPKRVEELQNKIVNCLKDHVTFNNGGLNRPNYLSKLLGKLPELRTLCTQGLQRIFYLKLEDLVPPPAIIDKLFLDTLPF

Turning to `CC(C)=CCC/C(C)=C/[C@@H]1CC(C)=C[C@]2(C=C(CF)[C@H]3CC(=O)C(C)=C[C@H]3O2)O1` [Compound 7], the EC50 on Nurr1 stood at 0.032 µM. For the same molecule, the “exercise capacity (Rotarod)” value in assay [1] was “the same results as CMDD-X”. Also, the IC50 in the assay with LXR was found to be 0.011 µM. Besides, the “efficacy on renal failure (blood urea nitrogen)” value in the assay on db/db mice is recorded as “somewhat superior efficacy as compared with CMDD-X”. The “expressions of LXR, SREBP1c, and SCD1” value in assay [2] is “very increased”. Moreover, the “expression of Gyk (glycolysis biomarker), increase” value in assay [2] (micro-array and Q-RT PCR) is listed as 1.3 times. Further, the “insulin tolerance test: final blood sugar decreased as compared with the control group” value in assay [3] (insulin 3 unit/kg) was 58%. The “blood sugar after food intake, lower than that of the control group” value in assay [3] (oral 10 mg/kg/day, 4 weeks) was found to be 27%. Further, the “blood sugar at the time of an empty stomach, reduction” value in assay [3] (oral 10 mg/kg/day, 4 weeks, fasted 15 hours) came to 28%. The “blood insulin concentration, relative to that of the control group” value in assay [3] (oral 10 mg/kg/day, 4 weeks, plasma, Elisa Kit) is reported as 73%.

Take `C#CCOCC1=C[C@]2(C=C(C)C[C@@H](/C=C(\C)CCC=C(C)C)O2)O[C@@H]2C=C(C)C(=O)C[C@H]12` [Compound 8]: the response at Nurr1 was half-maximal at 0.025 µM (EC50). The molecule also gave an IC50 in the assay on LXR of 0.085 µM.

With `CC(C)=CCC/C(C)=C/[C@@H]1CC(C)=C[C@]2(C=C(C=O)[C@H]3CC(=O)C(C)=C[C@H]3O2)O1` [Compound 4], on Nurr1, the midpoint of the response, the EC50, lay at 0.007 µM. Moreover, the IC50 in the assay with LXR amounted to 0.005 µM.

On to `CC(C)=CCC/C(C)=C/[C@@H]1CC(C)=C[C@]2(C=C(COS(=O)(=O)c3ccc(C)cc3)[C@H]3CC(=O)C(C)=C[C@H]3O2)O1` [Compound 1], for which the EC50 on Nurr1 was 0.028 µM. For the same molecule, the concentration for half-maximal inhibition (IC50) with LXR stood at 0.021 µM.

What is called EC50 is the concentration at which the effect is half-maximal. Read a low EC50 as higher potency in that assay. The IC50 is the midpoint of a concentration-inhibition curve.
